Data taken from patent US20120128821A1, “PROBIOTIC MICROORGANISMS ISOLATED FROM DONKEY MILK” (EUROLACTIS GROUP SA, priority 2009, published 2012).

Assay: Production of organic acids after fermentation in donkey milk (HPLC)
Details: absolute area, produced during fermentation, grown in donkey milk
Method: The production of organic acids after fermentation was determined by high-performance liquid chromatography of filtered supernatants (Vulevic, Rastall & Gibson, 2004; Nazzaro et al. 2009), using a Gold System apparatus equipped with an ultraviolet detector (Beckman, CA, USA). Samples were loaded onto a pre-packed Aminex HPX-87 column (300 7.8 mm, Bio-Rad, Hercules, Calif., USA) and eluted with […] sulphuric acid. Total running time was 40 min; flow rate was 0.6 ml/min; injection volume was 20 μl; and detection wavelength was 210 nm.
In the following tables are reported the amount of butyric acid and citric acid produced during fermentation by strains of the invention and some strains of reference, grown in donkey milk. The data are expressed in terms of absolute area (mm^2): […]

For Lactobacillus acidophilus, the “Amount of butyric acid” value was 26.21 mm^2 and the “Amount of citric acid” value was 51.37 mm^2.
